Drawing on patent US7923465B2, “Cannabinoid receptor ligands, pharmaceutical compositions containing them, and process for their preparation” (priority 2005, dated 2011), this text covers melting point and inhibition for 20 compounds.

Data set [1] addresses hCB2 (Homo sapiens, UniProt P34972). In words: In vitro binding assay using hCB2-CHO membranes, [3H]-CP-55,940 displacement (Protocol IV). Further details: expressed in transfected cells; host or cells: CHO (hCB2-CHO, generated in-house). The settings on record: 1 h, read-out: % Displacement Protocol IV. The method, then:
IV. Protocol for In Vitro Assay Using hCB2-CHO Membranes:
In this assay, [^3H]-CP-55,940 was used as the radioligand to bind human CB2 receptor expressed on the membranes from CHO cells (hCB2-CHO cell line was generated in-house) which can be displaced by unlabeled ligands having affinity to the CB2 receptor.
The assay was performed according to the modified method of Ross et al., 1999 (Br. J. Pharmacol. 128, 735-743). The reaction was set up in a total volume of 200 μl in PEI (0.2%) precoated Millipore GFB filter plates. 1 mM stocks of test compounds were prepared in DMSO and tested at a final concentration of 300 nM. The non-specific binding was determined by 0.5 μM CP-55, 940. The total reaction mixture contained Tris-BSA buffer (50 mM Tris, 5 mM MgCl2, 1 mM EDTA, pH 7.4 with 0.1% BSA), unlabelled CP-55, 940 (0.5 μM) or test samples, [^3H]-CP-55, 940 (0.75 nM) and 25-50 μg of human CB2 receptor preparation. The assay mixture (with or without the test compound) was incubated at 30° C. for 1 hour. The reaction was stopped by rapid filtration under vacuum and the radioactivity on the filters was measured by liquid scintillation counting.
The percent (%) displacement by a test ligand was calculated by comparing the specific bound values.

Setting [2] is: hCB2-CHO membranes, [3H]-CP-55,940 displacement.

A word on the melting point: it is the temperature of the solid-liquid transition.

Read-outs that look alike come from different tables or passages of the source.

Chain of hCB2 (P34972 whole entry): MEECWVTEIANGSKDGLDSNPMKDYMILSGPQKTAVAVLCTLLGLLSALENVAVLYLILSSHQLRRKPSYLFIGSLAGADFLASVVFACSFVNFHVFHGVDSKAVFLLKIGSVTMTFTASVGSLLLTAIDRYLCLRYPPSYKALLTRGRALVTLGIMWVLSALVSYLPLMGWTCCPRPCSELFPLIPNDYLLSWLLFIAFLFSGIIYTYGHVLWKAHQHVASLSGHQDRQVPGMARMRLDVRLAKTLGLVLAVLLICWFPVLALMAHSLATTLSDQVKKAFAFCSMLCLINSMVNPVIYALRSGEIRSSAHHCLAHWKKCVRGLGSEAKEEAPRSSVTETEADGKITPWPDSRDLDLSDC

As to `O=C(NCc1ccc(F)cc1F)c1nn(-c2ccc(Cl)cc2)c2c1C1CC3CC(C1)CC2C3` [Example 114, N(7)-(2,4-Difluorobenzyl)-5-(4-chlorophenyl)-5,6-diazatetracyclo[7.3.1.1^3,11.0^4,8]tetradeca-4(8),6-diene-7-carboxamide], the melting point came to 185 °C. For the same compound, in data set [1], the inhibition at 0.3 µM is 31.7%.

Turning to `O=C(NCC1CCCCC1)c1nn(-c2ccc(F)cc2F)c2c1C1CCC2C1` (stereo not shown) [Example 291, N(3)-(Cyclohexylmethyl)-1-(2,4-difluorophenyl)-4,5,6,7-tetrahydro-1H-4,7-methano-indazole-3-carboxamide], the melting point lay in the range of 94 to 97 °C.

The compound `COC(=O)[C@H](NC(=O)c1nn(-c2ccc(F)cc2F)c2c1C1CCC2(C)C1(C)C)c1ccccc1` (stereo partly drawn) [Example 409, Methyl (2R)-2-[1-(2,4-difluorophenyl)-7,8,8-trimethyl-4,5,6,7-tetrahydro-1H-4,7-methano-indazole-3-carboxamido]-2-phenylethanoate] yielded a melting point of 107 to 109 °C. In addition, in data set [1] (setting [2]), the inhibition at 0.3 µM amounted to 65.3%.

`CC[C@H](NC(=O)c1nn(-c2ccc(F)cc2F)c2c1C1CC3CC(C1)CC2C3)c1ccccc1` [Example 152, N(7)-[(S)-1-Phenylpropyl]-5-(2,4-difluorophenyl)-5,6-diazatetracyclo[7.3.1.1^3,11.0^4,8]tetradeca-4(8),6-diene-7-carboxamide]: the melting point lay in the range of 127 to 129 °C. The inhibition at 0.3 µM in data set [1] turned out to be 60.3%.

In the case of `CC12CCC(c3c(C(=O)NNc4ccccc4F)nn(-c4ccc(Cl)cc4Cl)c31)C2(C)C` (stereo not shown) [Example 402, N(3)-[(2-Fluorophenyl)amino]-1-(2,4-Dichlorophenyl)-7,8,8-trimethyl-4,5,6,7-tetrahydro-1H-4,7-methano-indazole-3-carboxamide], the melting point was in the range of 72 to 80 °C. The inhibition at 0.3 µM in data set [1] (setting [2]) came to 2.66%.

Compound `CC(C)(NC(=O)c1nn(-c2ccc(F)cc2F)c2c1C1CCC2c2ccccc21)c1ccccc1` (stereo not shown) [Example 509, N12-(1-Methyl-1-phenylethyl)-10-(2,4-difluorophenyl)-10,11-diazatetracyclo[6.5.2.0^2,7.0^9,13]pentadeca-2,4,6,9(13),11-pentaene-12-carboxamide] displayed a melting point of 175 to 178 °C. For the same compound, the inhibition at 0.3 µM in data set [1] amounted to 67.2%.

In turn, `CC1(NC(=O)c2nn(-c3ccc(F)cc3F)c3c2C2CCC3C2)C2CC3CC(C2)CC1C3` (stereo not shown) [Example 310, N5-(2-Methyl-2-adamantyl)-3-(2,4-difluorophenyl)-3,4-diazatricyclo[5.2.1.0^2,6]deca-2(6),4-diene-5-carboxamide] registered a melting point of 60 °C. In addition, the inhibition at 0.3 µM in data set [1] turned out to be 94.2%.

For the compound `CC12CCC(c3c(C(=O)NC45CC6CC(CC(C6)C4)C5)nn(-c4ccc(F)cc4F)c31)C2(C)C` (stereo not shown) [Example 405, N(3)-(Adamantan-1-yl)-1-(2,4-difluorophenyl)-7,8,8-trimethyl-4,5,6,7-tetrahydro-1H-4,7-methano-indazole-3-carboxamide], the melting point lay within 162 to 165 °C. In addition, in data set [1], the inhibition at 0.3 µM was determined as 87.9%.

Turning to `O=C(NCc1ccc(Cl)cc1)c1nn(-c2ccc(F)cc2F)c2c1C1CCC2C1` (stereo not shown) [Example 298, N5-(4-Chlorobenzyl)-3-(2,4-difluorophenyl)-3,4-diazatricyclo[5.2.1.0^2,6]deca-2(6),4-diene-5-carboxamide], the melting point lay within 121 to 125 °C. Also, the inhibition at 0.3 µM in data set [1] (setting [2]) was found to be 11.2%.

`O=C(NC1CC1)c1nn(-c2ccc(F)cc2F)c2c1C1CCC2C1` (stereo not shown) [Example 317, N(3)-Cyclopropyl-1-(2,4-difluorophenyl)-4,5,6,7-tetrahydro-1H-4,7-methano-indazole-3-carboxamide] showed a melting point of 59 to 61 °C. Also, in data set [1], the inhibition at 0.3 µM amounted to 16.9%.

In turn, `CC(C)(NC(=O)c1nn(-c2ccc(F)cc2)c2c1C1CC3CC(C1)CC2C3)c1ccccc1` [Example 157, N(7)-(1-Methyl-1-phenylethyl)-5-(4-fluorophenyl)-5,6-diazatetracyclo[7.3.1.1^3,11.0^4,8]tetradeca-4(8),6-diene-7-carboxamide] returned a melting point of 180 to 182 °C. For the same compound, the inhibition at 0.3 µM in data set [1] was 88.5%.

Take `CCC(CC)(NC(=O)c1nn(-c2ccc(F)cc2F)c2c1C1CCC2C1)c1ccccc1` (stereo not shown) [Example 299, N5-(1-Ethyl-1-phenylpropyl)-3-(2,4-difluorophenyl)-3,4-diazatricyclo[5.2.1.0^2,6]deca-2(6),4-diene-5-carboxamide]: the melting point was in the range of 45 to 48 °C. Moreover, the inhibition at 0.3 µM in data set [1] was 77.6%.

Regarding `CN(NC(=O)c1nn(-c2ccc(Cl)cc2Cl)c2c1C1CCC2C1)c1ccccc1Cl` (stereo not shown) [Example 258, N(3)-[N-(2-Chlorophenyl)-N-methylamino]-1-(2,4-dichlorophenyl)-4,5,6,7-tetrahydro-1H-4,7-methano-indazole-3-carboxamide], the melting point was in the range of 121 to 124 °C.

In turn, `O=C(NCc1c(F)cccc1F)c1nn(-c2ccc(Cl)cc2)c2c1C1CC3CC(C1)CC2C3` [Example 115, N(7)-(2,6-Difluorobenzyl)-5-(4-chlorophenyl)-5,6-diazatetracyclo[7.3.1.1^3,11.0^4,8]tetradeca-4(8),6-diene-7-carboxamide] gave a melting point of 166 to 167 °C.

For `O=C(NCc1c(F)cccc1F)c1nn(-c2ccc(Cl)cc2Cl)c2c1C1CCC2C1` (stereo not shown) [Example 248, N(3)-(2,6-Difluorobenzyl)-1-(2,4-dichlorophenyl)-4,5,6,7-tetrahydro-1H-4,7-methano-indazole-3-carboxamide], the melting point fell in the range of 130 to 133 °C.

Regarding `C[C@@H](NC(=O)c1nn(-c2ccc(F)cc2F)c2c1C1CCC2C1)c1ccccc1` (stereo partly shown) [Example 293, N(3)-(R-1-phenylethyl)-1-(2,4-difluorophenyl)-4,5,6,7-tetrahydro-1H-4,7-methano-indazole-3-carboxamide], the melting point was in the range of 40 to 45 °C.

Compound `CC12CCC(c3c(C(=O)Nc4ccccc4)nn(-c4ccc(Cl)cc4Cl)c31)C2(C)C` (stereo not shown) [Example 401, N(3)-Phenyl-1-(2,4-dichlorophenyl)-7,8,8-trim ethyl-4,5,6,7-tetrahydro-1H-4,7-methano-indazole-3-carboxamide] returned a melting point of 112 to 115 °C.

For `CN(NC(=O)c1nn(-c2ccc(Cl)cc2Cl)c2c1C1CCC2C1)c1ccc(Cl)cc1Cl` (stereo not shown) [Example 261, N(3)-[(2,4dichlorophenyl)-N-methylamino]-1-(2,4-dichlorophenyl)-4,5,6,7-tetrahydro-1H-4,7-methano-indazole-3-carboxamide], the melting point lay in the range of 135 to 138 °C.

Take `CCCCCn1nc2c(c1C(=O)NC(C)(C)c1ccccc1)C1CC3CC(CC2C3)C1` [Example 190a, N(7)-(1-Methyl-1-phenylethyl)-6-pentyl-5,6-diazatetracyclo[7.3.1.1^3,11.0^4,8]tetradeca-4,7-diene-7-carboxamide]: in data set [1], the inhibition at 0.3 µM was determined as 0%.

Consider `O=C(NNc1ccccc1F)c1nn(-c2ccc(Br)cc2)c2c1C1CCC2C1` (stereo not shown) [Example 278, N(3)-[(2-Fluorophenyl)amino]-1-(4-bromophenyl)-4,5,6,7-tetrahydro-1H-4,7-methano-indazole-3-carboxamide], for which the melting point came out at 123 °C.
